# Measurements taken from patent publication US7019109B2, “SSTR1-selective analogs” (The Salk Institute for Bilogical Studies, priority 2001, dated 2006).
# pIC50: −log10 of the molar value. Where two headings read alike, the source gives them in different places. *1 amine or outer side, *2 acyl side, *3 side chain or, on linkers, in order; H or OH if unused. Where a SMILES comes first, the peptide text is derived from it. Bridges are numbered along the chain shown (N, C = ends). [ ]: non-standard residue; d: D form. The star is where a group is joined. NMePhe(4-CH2NHiPr) = CN[C@@H](Cc1ccc(CNC(C)C)cc1)C(=O)O; Tyr(Nα-carbamoyl) = NC(=O)N[C@@H](Cc1ccc(O)cc1)C(=O)*; Phe(4-CH2NHiPr) = CC(C)NCc1ccc(C[C@H](N)C(=O)O)cc1; Tyr(3-I) = N[C@@H](Cc1ccc(O)c(I)c1)C(=O)O; X3 = NC(=O)N[C@@H](Cc1ccc(O)c(I)c1)C(=O)*; X1 = NC(=O)N[C@@H](CS[*:2])C(=O)[*:1]; d2Nal = N[C@H](Cc1ccc2ccccc2c1)C(=O)O; NMeS = CN[C@@H](CO)C(=O)O
# Legend:
# Assay type in all cases: binding
# human SSTR1 = biological target: T1, human SSTR1 (Homo sapiens, UniProt P30872); test: Displacement of 125I-[Leu8,D-Trp22,Tyr25]-SRIF-28 from cloned SSTR1 (receptor autoradiography); conditions: for IC50: inhibition of radioligand binding of 125I-[Leu8,D-Trp22,Tyr24]SRIF-28, cloned receptor, table, read-out: IC50 (nM) mSSTR1
# T1 construct: expressed in transfected cells; host or cells: CHO-K1 cells and CCL39 cells
# T1 sequence (P30872 whole entry): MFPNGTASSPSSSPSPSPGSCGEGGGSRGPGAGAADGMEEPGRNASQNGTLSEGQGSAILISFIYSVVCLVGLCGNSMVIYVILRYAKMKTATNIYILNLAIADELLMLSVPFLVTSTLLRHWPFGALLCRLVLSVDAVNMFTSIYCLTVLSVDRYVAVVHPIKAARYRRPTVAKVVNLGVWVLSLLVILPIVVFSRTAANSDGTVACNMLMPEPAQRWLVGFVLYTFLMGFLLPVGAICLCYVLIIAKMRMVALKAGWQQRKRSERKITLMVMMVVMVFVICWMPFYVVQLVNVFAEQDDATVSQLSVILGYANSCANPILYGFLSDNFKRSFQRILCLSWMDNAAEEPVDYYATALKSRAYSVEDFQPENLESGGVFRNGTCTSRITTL
# Experimental: (§1) Generally, recombinant cells expressing the receptor are washed and homogenized to prepare a crude protein homogenate that is frozen, embedded and then cut in 10–20 μm thin sections, as known in this art. Candidate substances, such as potential SRIF agonists and antagonists, are incubated with the tissue sections, and the interaction between the candidate substance and the receptor polypeptide is monitored.
# (§2) Receptor binding assays are performed on cloned SRIF receptors as generally set forth in Reubi, J. C. et al., J. Clin. Endocrinol. […] Med. 2000, 27, 273–282.
# (§3) In vitro Bioassay: The various somatostatin analogs are tested in vitro for their ability to bind to isolated cloned receptors expressed on CHO-K1 cells and CCL39 cells. CHO-K1 cells are grown in Ham's F-12 medium, and CCL39 cells are grown in Dulbecco's modified Eagle's medium/Ham's F-12(1:1) mix, supplemented with 10% fetal bovine serum, 100 U/ml penicillin and 100 μg/ml streptomycin, in humidified air containing 5% CO2 at 37° C.
# (§4) Cells are washed and prepared to produce homogenates as described in detail in Reubi, J. C. et al, Eur. J. Nucl. Med. 2000, 27, 273–282.
# (§5) Receptor autoradiography is performed on 20 μm thick cryostat sections of the membrane pellets, mounted on microscope slides, and then stored at −20° C. […] Increasing concentrations of the unlabeled peptide are used ranging from 0.1–1000 nM. […] IC50 values are calculated after quantification of the data using a computer-assisted image processing system as known in this art.
# human SSTR2 = biological target: T2, human SSTR2 (Homo sapiens, UniProt P30874); test: Displacement of 125I-[Leu8,D-Trp22,Tyr25]-SRIF-28 from cloned SSTR2 (receptor autoradiography); conditions: for IC50: read-out: IC50 (nM) mSSTR2
# T2 construct: expressed in transfected cells; host or cells: CHO-K1 cells and CCL39 cells
# T2 sequence (P30874 whole entry): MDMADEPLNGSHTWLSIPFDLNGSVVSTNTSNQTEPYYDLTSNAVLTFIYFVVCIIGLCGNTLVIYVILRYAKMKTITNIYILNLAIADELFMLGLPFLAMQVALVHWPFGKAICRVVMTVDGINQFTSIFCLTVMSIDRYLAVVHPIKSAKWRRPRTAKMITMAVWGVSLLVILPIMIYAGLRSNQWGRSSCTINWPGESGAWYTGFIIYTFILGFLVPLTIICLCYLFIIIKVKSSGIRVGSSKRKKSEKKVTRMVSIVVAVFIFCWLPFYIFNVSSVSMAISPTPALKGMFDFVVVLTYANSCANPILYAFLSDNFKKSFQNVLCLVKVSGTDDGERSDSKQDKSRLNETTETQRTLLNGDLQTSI
# Experimental: as §1, §2, §3, §4
# (§6) Receptor autoradiography is performed on 20 μm thick cryostat sections of the membrane pellets, mounted on microscope slides, and then stored at −20° C. […] […] […] IC50 values are calculated after quantification of the data using a computer-assisted image processing system as known in this art.
# human SSTR3 = biological target: T3, human SSTR3 (Homo sapiens, UniProt P32745); test: Displacement of 125I-[Leu8,D-Trp22,Tyr25]-SRIF-28 from cloned SSTR3 (receptor autoradiography); conditions: for IC50: read-out: IC50 (nM) mSSTR3
# T3 construct: expressed in transfected cells; host or cells: CHO-K1 cells and CCL39 cells
# T3 sequence (P32745 whole entry): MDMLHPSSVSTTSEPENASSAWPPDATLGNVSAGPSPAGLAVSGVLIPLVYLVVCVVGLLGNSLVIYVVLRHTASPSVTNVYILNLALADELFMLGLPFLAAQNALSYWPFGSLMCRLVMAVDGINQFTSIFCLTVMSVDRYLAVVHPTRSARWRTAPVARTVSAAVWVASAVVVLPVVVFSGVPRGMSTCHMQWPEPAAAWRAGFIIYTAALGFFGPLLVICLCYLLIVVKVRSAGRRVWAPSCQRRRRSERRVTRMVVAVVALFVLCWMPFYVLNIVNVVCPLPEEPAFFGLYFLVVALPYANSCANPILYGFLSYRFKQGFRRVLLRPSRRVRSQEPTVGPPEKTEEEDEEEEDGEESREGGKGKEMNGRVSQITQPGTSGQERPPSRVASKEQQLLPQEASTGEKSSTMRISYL
# Experimental: as §1, §2, §3, §4, §5
# human SSTR4 = biological target: T4, human SSTR4 (Homo sapiens, UniProt P31391); test: Displacement of 125I-[Leu8,D-Trp22,Tyr25]-SRIF-28 from cloned SSTR4 (receptor autoradiography); conditions: for IC50: read-out: IC50 (nM) mSSTR4
# T4 construct: expressed in transfected cells; host or cells: CHO-K1 cells and CCL39 cells
# T4 sequence (P31391 whole entry): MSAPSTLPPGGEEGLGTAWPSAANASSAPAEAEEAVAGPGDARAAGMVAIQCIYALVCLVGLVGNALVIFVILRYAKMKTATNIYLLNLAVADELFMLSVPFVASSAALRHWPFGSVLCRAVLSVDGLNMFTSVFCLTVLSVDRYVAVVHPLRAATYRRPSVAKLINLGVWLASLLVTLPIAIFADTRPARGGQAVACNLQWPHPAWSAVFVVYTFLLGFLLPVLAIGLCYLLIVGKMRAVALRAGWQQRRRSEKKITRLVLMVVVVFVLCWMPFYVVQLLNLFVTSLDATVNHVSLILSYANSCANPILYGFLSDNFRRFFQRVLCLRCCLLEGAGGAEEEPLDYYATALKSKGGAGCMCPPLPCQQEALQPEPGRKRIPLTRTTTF
# Experimental: as §1, §2, §3, §4, §5
# human SSTR5 = biological target: T5, human SSTR5 (Homo sapiens, UniProt P35346); test: Displacement of 125I-[Leu8,D-Trp22,Tyr25]-SRIF-28 from cloned SSTR5 (receptor autoradiography); conditions: for IC50: read-out: IC50 (nM) mSSTR5
# T5 construct: expressed in transfected cells; host or cells: CHO-K1 cells and CCL39 cells
# T5 sequence (P35346 whole entry): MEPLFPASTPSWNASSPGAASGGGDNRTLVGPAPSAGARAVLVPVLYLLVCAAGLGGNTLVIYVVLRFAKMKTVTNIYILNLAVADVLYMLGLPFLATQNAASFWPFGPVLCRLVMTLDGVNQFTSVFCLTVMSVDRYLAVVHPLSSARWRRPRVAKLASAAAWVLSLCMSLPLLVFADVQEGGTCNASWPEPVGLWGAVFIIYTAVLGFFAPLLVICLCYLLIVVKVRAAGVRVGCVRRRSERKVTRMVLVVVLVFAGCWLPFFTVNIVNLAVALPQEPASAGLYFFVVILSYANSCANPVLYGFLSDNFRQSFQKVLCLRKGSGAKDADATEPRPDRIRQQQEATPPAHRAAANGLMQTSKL
# Experimental: as §1, §2, §3, §4, §6
# [1] = displacement of iodinated SRIF-28 radioligand, read-out: IC50 / binding affinity at human SSTR1
# [2] = unit inferred, read-out: IC50 / binding affinity at SSTR1, unit inferred
# [3] = inhibition of radioligand binding of 125I-[Leu8,D-Trp22,Tyr24]SRIF-28, cloned receptor, table
Compound,pIC50 (human SSTR1; [1]),IC50 (human SSTR2),IC50 (human SSTR3),IC50 (human SSTR4),IC50 (human SSTR5),IC50 (human SSTR1),pIC50 (human SSTR1; [2]),IC50 (human SSTR4; [3]),IC50 (human SSTR2; [3]),pIC50 (human SSTR2; read-out: concentration below which no binding to SSTR2),IC50 (human SSTR3; [3]),pIC50 (human SSTR3; read-out: concentration below which no binding to SSTR3),pIC50 (human SSTR4; read-out: concentration below which no binding to SSTR4),IC50 (human SSTR5; [3]),pIC50 (human SSTR5; read-out: concentration below which no binding to SSTR5)
"CC(C)NCc1ccc(C[C@@H]2NC(=O)[C@@H](Cc3c[nH]c4ccccc34)NC(=O)[C@H](Cc3ccccc3)NC(=O)[C@H](Cc3ccccc3)NC(=O)[C@H](CCCCN)NC(=O)[C@@H](N)CSSC[C@@H](C(=O)O)NC(=O)[C@H](CO)N(C)C(=O)[C@H]([C@@H](C)O)NC(=O)[C@H](Cc3ccccc3)NC(=O)[C@H]([C@@H](C)O)NC2=O)cc1 [Peptide No. 22A, (cyclo)H-Cys-Lys-Phe-Phe-D-Trp-IAmp-Thr-Phe-Thr-N^αMeSer-Cys-OH] (H-CKFF[dW][Phe(4-CH2NHiPr)]TFT[NMeS]C-OH; disulfide 1-11)",,> 10000 nM,600 nM,> 1000 nM,> 1000 nM,25 nM,,,,,,,,,
"CC(C)NCc1ccc(C[C@@H]2NC(=O)[C@@H](Cc3c[nH]c4ccccc34)NC(=O)[C@H](Cc3ccccc3)NC(=O)[C@H](Cc3ccccc3)NC(=O)[C@H](CCCCN)NC(=O)[C@H](NC(=O)[C@H](Cc3ccc(O)cc3)NC(N)=O)CSSC[C@@H](C(=O)O)NC(=O)[C@H](CO)NC(=O)[C@H]([C@@H](C)O)NC(=O)[C@H](Cc3ccccc3)NC(=O)[C@H]([C@@H](C)O)NC2=O)cc1 [Peptide No. 14C, (cyclo)CbmTyr-D-Cys-Lys-Phe-Phe-D-Trp-IAmp-Thr-Phe-Thr-Ser-Cys-OH] ({Tyr(Nα-carbamoyl)}-[dC]KFF[dW][Phe(4-CH2NHiPr)]TFTSC-OH; disulfide 1-11)",,> 10000 nM,> 1000 nM,,> 1000 nM,33 nM,,487 nM,,,,,,,
"CC(C)NCc1ccc(C[C@@H]2NC(=O)[C@@H](Cc3c[nH]c4ccccc34)NC(=O)[C@H](Cc3ccccc3)NC(=O)[C@H](Cc3ccccc3)NC(=O)[C@H](CCCCN)NC(=O)[C@@H](NC(=O)[C@H](Cc3ccc(O)cc3)NC(N)=O)CSSC[C@@H](C(=O)O)NC(=O)[C@H](CO)NC(=O)[C@H]([C@@H](C)O)NC(=O)[C@H](Cc3ccccc3)NC(=O)[C@H]([C@@H](C)O)NC2=O)cc1 [Peptide No. 14A, (cyclo)CbmTyr-Cys-Lys-Phe-Phe-D-Trp-IAmp-Thr-Phe-Thr-Ser-Cys-OH] ({Tyr(Nα-carbamoyl)}-CKFF[dW][Phe(4-CH2NHiPr)]TFTSC-OH; disulfide 1-11)",,> 10000 nM,500 nM,,> 1000 nM,,7.82,> 1000 nM,,,,,,,
"CC(C)NCc1ccc(C[C@H]2C(=O)N[C@@H]([C@@H](C)O)C(=O)N[C@@H](Cc3ccc(O)cc3)C(=O)N[C@@H]([C@@H](C)O)C(=O)N[C@@H](CO)C(=O)N[C@H](C(=O)O)CSSC[C@H](N)C(=O)N[C@@H](CCCCN)C(=O)N[C@@H](Cc3ccccc3)C(=O)N[C@@H](Cc3ccccc3)C(=O)N[C@H](Cc3ccc4ccccc4c3)C(=O)N2C)cc1 [Peptide No. 9A, (cyclo)H-Cys-Lys-Phe-Phe-D-2Nal-N^αMeIAmp-Thr-Tyr-Thr-Ser-Cys-OH] (H-CKFF[d2Nal][NMePhe(4-CH2NHiPr)]TYTSC-OH; disulfide 1-11)",~7.68,,,,,24.5 nM,,> 1000 nM,> 10000 nM,< 5.00,> 1000 nM,< 6.00,< 5.00,> 10000 nM,< 5.00

# Other lines, results leading:
pIC50 (human SSTR1; [1]),IC50 (human SSTR2),IC50 (human SSTR3),IC50 (human SSTR4),IC50 (human SSTR5),IC50 (human SSTR1),pIC50 (human SSTR1; [2]),IC50 (human SSTR4; [3]),IC50 (human SSTR2; [3]),pIC50 (human SSTR2; read-out: concentration below which no binding to SSTR2),IC50 (human SSTR3; [3]),pIC50 (human SSTR3; read-out: concentration below which no binding to SSTR3),pIC50 (human SSTR4; read-out: concentration below which no binding to SSTR4),IC50 (human SSTR5; [3]),pIC50 (human SSTR5; read-out: concentration below which no binding to SSTR5),Compound
8.09,> 10000 nM,> 1000 nM,> 1000 nM,> 1000 nM,,,,,,,,,,,"CC(C)NCc1ccc(C[C@@H]2NC(=O)[C@@H](Cc3c[nH]c4ccccc34)NC(=O)[C@H](Cc3ccccc3)NC(=O)[C@H](Cc3ccccc3)NC(=O)[C@H](CCCCN)NC(=O)[C@@H](NC(N)=O)CSSC[C@@H](C(=O)O)NC(=O)[C@H](CO)NC(=O)[C@H]([C@@H](C)O)NC(=O)[C@H](Cc3ccc(O)cc3)NC(=O)[C@H]([C@@H](C)O)NC2=O)cc1 [Peptide No. 12A, (cyclo)CbmCys-Lys-Phe-Phe-D-Trp-IAmp-Thr-Tyr-Thr-Ser-Cys-OH] (KFF[dW][Phe(4-CH2NHiPr)]TYTSC-OH; linker N-10 via X1)"
,> 10000 nM,> 1000 nM,> 10000 nM,> 10000 nM,32 nM,~7.49,,,,,,,,,"CC(C)NCc1ccc(C[C@H]2C(=O)N[C@@H]([C@@H](C)O)C(=O)N[C@@H](Cc3ccc(O)cc3)C(=O)N[C@@H]([C@@H](C)O)C(=O)N[C@@H](CO)C(=O)N[C@H](C(=O)O)CSSC[C@H](NC(N)=O)C(=O)N[C@@H](CCCCN)C(=O)N[C@@H](Cc3ccccc3)C(=O)N[C@@H](Cc3ccccc3)C(=O)N[C@H](Cc3ccc4ccccc4c3)C(=O)N2C)cc1 [Peptide No. 16, (cyclo)CbmCys-Lys-Phe-Phe-D-2Nal-N^αMeIAmp-Thr-Tyr-Thr-Ser-Cys-OH] (KFF[d2Nal][NMePhe(4-CH2NHiPr)]TYTSC-OH; linker N-10 via X1)"
,> 1000 nM,290 nM,> 1000 nM,> 1000 nM,34.7 nM,,,,,,,,,,CC(C)NCc1ccc(C[C@@H]2NC(=O)[C@@H](Cc3c[nH]c4ccccc34)NC(=O)[C@H](Cc3ccccc3)NC(=O)[C@H](Cc3ccccc3)NC(=O)[C@H](CCCCN)NC(=O)[C@@H](NC(=O)[C@H](Cc3ccc(O)c(I)c3)NC(N)=O)CSSC[C@@H](C(=O)O)NC(=O)[C@H](CO)NC(=O)[C@H]([C@@H](C)O)NC(=O)[C@H](Cc3ccccc3)NC(=O)[C@H]([C@@H](C)O)NC2=O)cc1 [Peptide No. 14B] (X3-CKFF[dW][Phe(4-CH2NHiPr)]TFTSC-OH; disulfide 1-11)
,> 1000 nM,> 1000 nM,> 1000 nM,> 10000 nM,43 nM,~7.49,,,,,,,,,"CC(C)NCc1ccc(C[C@H]2C(=O)N[C@@H]([C@@H](C)O)C(=O)N[C@@H](Cc3ccccc3)C(=O)N[C@@H]([C@@H](C)O)C(=O)N[C@@H](CO)C(=O)N[C@H](C(=O)O)CSSC[C@H](N)C(=O)N[C@@H](CCCCN)C(=O)N[C@@H](Cc3ccccc3)C(=O)N[C@@H](Cc3ccccc3)C(=O)N[C@H](Cc3ccc4ccccc4c3)C(=O)N2C)cc1 [Peptide No. 15, (cyclo)H-Cys-Lys-Phe-Phe-D-2Nal-N^αMeIAmp-Thr-Phe-Thr-Ser-Cys-OH] (H-CKFF[d2Nal][NMePhe(4-CH2NHiPr)]TFTSC-OH; disulfide 1-11)"
,> 1000 nM,> 1000 nM,700 nM,> 1000 nM,8.5 nM,,,,,,,,,,"CC(C)NCc1ccc(C[C@H]2C(=O)N[C@@H]([C@@H](C)O)C(=O)N[C@@H](Cc3ccc(O)c(I)c3)C(=O)N[C@@H]([C@@H](C)O)C(=O)N[C@@H](CO)C(=O)N[C@H](C(=O)O)CSSC[C@H](NC(N)=O)C(=O)N[C@@H](CCCCN)C(=O)N[C@@H](Cc3ccccc3)C(=O)N[C@@H](Cc3ccccc3)C(=O)N[C@H](Cc3c[nH]c4ccccc34)C(=O)N2C)cc1 [Peptide No. 12D, (cyclo)CbmCys-Lys-Phe-Phe-D-Trp-N^αMeIAmp-Thr-ITyr-Thr-Ser-Cys-OH] (KFF[dW][NMePhe(4-CH2NHiPr)]T[Tyr(3-I)]TSC-OH; linker N-10 via X1)"
